# Reference: patent US6444685B1, “N-(4-sulfonylaryl)Cyclylamine 2-hydroxyethylamines as beta-3 adrenergic receptor agonists” (Wyeth, priority 2000, dated 2002)
# Assays:
# Assay type in all cases: cell-based
# [1] = biological target: T1, human β2-adrenergic receptor (Homo sapiens, UniProt P07550); test: cAMP accumulation (SPA) in CHO cells transfected with human β2 adrenergic receptor; conditions: for EC50: CHO cells transfected with human β2-AR, cAMP, 15 min incubation, 10^−8 to 10^−4 M, read-out: beta-2 EC50; for beta-2 (IA) maximal response relative to isoproterenol: IA = % activity compound / % activity isoproterenol at 10^−5 M, CHO human β2 cells
# T1 construct: expressed in transfected cells; host or cells: CHO cells
# Procedure: (§1) The ability of compounds of this invention to treat or inhibit disorders related to insulin resistance or hyperglycemia was established with representative compounds of this invention in the following standard pharmacological test procedures, which measured the binding selectivity to the β1, β2, and β3 adrenergic receptors. Binding to the receptors was measured in Chinese Hamster ovary (CHO) cells that were transfected with adrenergic receptors. The following briefly summarizes the procedures used and results obtained.
# (§2) Transfection of CHO cells with β1 and β2 adrenergic receptors: CHO cells were transfected with human β1- or β2-adrenergic receptors as described in Tate, K. M., Eur. J. Biochem., 196:357-361 (1991).
# (§3) Binding Procedure: Clones expressing receptor levels of 70 to 110 fmoles/mg protein were used in the test procedures. CHO cells were grown in 24-well tissue culture plates in Dulbecco's Modified Eagle Media with 10% fetal bovine serum, MEM non-essential amino acids, Penicillin-Streptompycin and Geneticin. On the day of test procedure, growth medium was replaced with preincubation media (Dulbecco's Modified Eagle Media and incubated for 30 minutes at 37° C. Preincubation medium was replaced with 0.2 ml treatment medium containing DMEM media containing 250 μM IBMX (isobutyl-1-methylxantine) plus 1 mM ascorbic acid with test compound dissolved in DMSO. Test compounds were tested over a concentration range of 10^−9 M to 10^−5 M for β3 cells and 10^−8 to 10^−4 M for β1 and β2 transfected cells. Isoproterenol (10^−5 M) was used as an internal standard for comparison of activity. Cells were incubated at 37° C. on a rocker for 30 min with the β3 cells and 15 min for β1 and β2 cells. Incubation was stopped with the addition of 0.2N HCl and neutralized with 2.5N NaOH. The plates, containing the cells and neutralized media, were stored at −20 degrees celsius until ready to test for cAMP using the SPA test kit (Amersham).
# (§4) Data Analysis and Results: Data collected from the SPA test procedure were analyzed as per cent of the maximal isoproterenol response at 10^−5 M. Activity curves were plotted using the SAS statistical and graphics software. EC50 values were generated for each compound and the maximal response (IA) developed for each compound is compared to the maximal response of isoproternol at 10^−5 M from the following formula:
# (§5) IA=% activity compound/% activity isoproterenol
# [2] = biological target: T2, human β1-adrenergic receptor (Homo sapiens, UniProt P08588); test: cAMP accumulation (SPA) in CHO cells transfected with human β1 adrenergic receptor; conditions: for EC50: CHO cells transfected with human β1-AR, cAMP, 15 min incubation, 10^−8 to 10^−4 M, read-out: beta-1 EC50; for beta-1 (IA) maximal response relative to isoproterenol: IA = % activity compound / % activity isoproterenol at 10^−5 M, CHO human β1 cells
# T2 construct: expressed in transfected cells; host or cells: CHO cells
# Procedure: as §1, §2, §3, §4, §5
# [3] = biological target: T3, human β3 adrenergic receptor (Homo sapiens, UniProt P13945); test: cAMP accumulation (SPA) in CHO cells transfected with human β3 adrenergic receptor; conditions: for EC50: CHO cells expressing human β3-AR, cAMP, 30 min incubation, 10^−9 M to 10^−5 M, read-out: beta-3 EC50; for beta-3 (IA) maximal response relative to isoproterenol: IA = % activity compound / % activity isoproterenol at 10^−5 M, CHO human β3 cells
# T3 construct: Full length β3 AR clones (402 amino acids) containing the last 6 amino acids of hβ3— AR are prepared; expressed in transfected cells; host or cells: CHO cells
# Procedure: as §1
# Cloning of Human β3-AR Genomic DNA: cDNA was constructed by ligating four polymerase chain reaction (PCR) products using the following primers: an ATG-Narl fragment, sense primer 5′-[…]3′ and anti-sense primer 5′[…]3′; a Narl-Accl fragment, 5′[…]3′ as sense and 5′[…]3′ as anti-sense primer; an Accli-Styl fragment, sense primer 5′[…]3′ and anti-sense primer 5′[…]3′ and a Styl-TAG fragment, with sense primer 5′[…]3′ and anti-sense primer 5′[…]3′. The corresponding primer sequences are described in Mantzoros, C. S., et.al., Diabetes 45: 909-914 (1996). The four fragments are ligated into a pUC 18 plasmid (Gibco-BRL) and sequenced. Full length β3 AR clones (402 amino acids) containing the last 6 amino acids of hβ3— AR are prepared with the β3-βARpcDNA3from ATTC.
# as §3, §4, §5
# T3 sequence (P13945 whole entry): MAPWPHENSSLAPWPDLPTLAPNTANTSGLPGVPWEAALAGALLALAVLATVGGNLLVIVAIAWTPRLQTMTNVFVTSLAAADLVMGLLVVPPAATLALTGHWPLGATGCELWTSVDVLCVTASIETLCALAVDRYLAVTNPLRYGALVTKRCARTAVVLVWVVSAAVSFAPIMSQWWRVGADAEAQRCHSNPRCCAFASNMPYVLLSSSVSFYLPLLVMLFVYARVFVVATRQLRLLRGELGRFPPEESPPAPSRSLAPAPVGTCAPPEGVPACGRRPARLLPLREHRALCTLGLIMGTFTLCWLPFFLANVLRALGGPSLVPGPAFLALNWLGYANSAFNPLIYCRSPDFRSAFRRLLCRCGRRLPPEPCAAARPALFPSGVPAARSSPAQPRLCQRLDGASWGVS
# T2 sequence (P08588 whole entry): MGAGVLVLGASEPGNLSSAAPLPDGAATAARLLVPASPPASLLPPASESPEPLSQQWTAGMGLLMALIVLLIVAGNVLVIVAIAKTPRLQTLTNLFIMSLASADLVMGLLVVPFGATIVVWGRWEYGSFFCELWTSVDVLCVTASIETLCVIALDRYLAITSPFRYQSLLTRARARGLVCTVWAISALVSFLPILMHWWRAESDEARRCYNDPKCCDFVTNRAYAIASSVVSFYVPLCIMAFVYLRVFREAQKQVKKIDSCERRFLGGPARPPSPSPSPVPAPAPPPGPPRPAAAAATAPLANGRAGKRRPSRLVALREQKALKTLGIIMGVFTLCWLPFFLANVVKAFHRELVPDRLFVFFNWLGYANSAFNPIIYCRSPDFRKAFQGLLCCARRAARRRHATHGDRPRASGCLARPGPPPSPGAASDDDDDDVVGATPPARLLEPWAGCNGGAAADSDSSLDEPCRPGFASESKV
Compound,EC50 [1] [nM],beta-2 (IA) maximal response relative to isoproterenol [1],EC50 [2] [nM],beta-1 (IA) maximal response relative to isoproterenol [2],EC50 [3] [nM],beta-3 (IA) maximal response relative to isoproterenol [3]
1-(4-{4-[2-Hydroxy-2-(4-hydroxy-3-methanesulfonylmethyl-phenyl)-ethylamino]-piperidin-1-yl}-benzenesulfonylamino)-cyclopentane Carboxylic Acid Ethyl Ester [Example 40],40,(0.31),1900,(0.45),4,(1.2)
1-(4-{4-[2-Hydroxy-2-(4-hydroxy-3-methanesulfonylmethyl-phenyl)ethylamino]-piperidin-1-yl}-benzenesulfonylamino)cyclohexane Carboxylic Acid Ethyl Ester [Example 43],90,(0.68),1280,(0.58),1,(1)
"CCCCN(Cc1ccccc1)S(=O)(=O)c1ccc(N2CCC(NCC(O)c3ccc(O)c(NS(C)(=O)=O)c3)CC2)cc1 (stereo not shown) [Example 3, N-Benzyl-N-butyl-4-{4-[2-hydroxy-2-(4-hydroxy-3-methanesulfonylamino-phenyl)-ethylamino]-piperidin-1-yl}-benzenesulfonamide]",310,(0.59),2100,(0.66),15,(1.1)
"O=S(=O)(NCc1ccccc1)c1ccc(N2CCC(NC[C@H](O)COc3ccc(O)cc3)CC2)cc1 [Example 6, N-Benzyl-4-{4-[(2S)-2-hydroxy-3-(4-hydroxy-phenoxy)-propylamino]-piperidin-1-yl}-benzenesulfonamide]",,,,,200,(0.76)
"COc1ccc(NS(=O)(=O)c2ccc(N3CCC(NC[C@H](O)COc4cccc5[nH]c(=O)[nH]c45)CC3)cc2)cc1OC [Example 7, N-(3,4-Dimethoxy-phenyl)-4-{4-[(2S)-2-hydroxy-3-(2-oxo-2,3-dihydro-1H-benzoimidazol-4-yloxy)-propylamino]-piperidin-1-yl}-benzenesulfonamide]",,(0.01),600,(0.15),20,(0.8)
"CS(=O)(=O)Nc1cc(C(O)CNC2CCN(c3ccc(S(=O)(=O)N4CCCC4C(=O)O)cc3)CC2)ccc1O (stereo not shown) [Example 18, 1-(4-{4-[2-Hydroxy-2-(4-hydroxy-3-methanesulfonylamino-phenyl)-ethylamino]-piperidin-1-yl}-benzenesulfonyl)-pyrrolidine-2-carboxylic Acid]",1000,(0.55),,(0.29),41,(0.99)
"CCOC(=O)CN(C)S(=O)(=O)c1ccc(N2CCC(NC[C@H](O)c3ccc(O)c(NS(C)(=O)=O)c3)CC2)cc1 [Example 25, [(4-{4-[(2R)-2-Hydroxy-2-(4-hydroxy-3-methanesulfonylamino-phenyl)-ethylamino]-piperidin-1-yl}-benzenesulfonyl)-methyl-amino]-acetic Acid Ethyl Ester]",1430,(0.37),1000,(0.63),52,(1)

# More lines, in order of falling EC50 [3], values ahead:
EC50 [1] [nM],beta-2 (IA) maximal response relative to isoproterenol [1],EC50 [2] [nM],beta-1 (IA) maximal response relative to isoproterenol [2],EC50 [3] [nM],beta-3 (IA) maximal response relative to isoproterenol [3],Compound
,,,,410,(0.94),"CS(=O)(=O)Nc1cc([C@@H](O)CNC2CCN(c3ccc(S(=O)(=O)N(CC(=O)O)CC(=O)O)cc3)CC2)ccc1O [Example 55, 2-((Carboxymethyl)[(4-{4-[((2R)-2-hydroxy-2-{4-hydroxy-3-[(methylsulfonyl)amino]phenyl)ethyl)amino]-1-piperidinyl}phenyl)sulfonyl]amino}acetic Acid]"
,(0.03),,(0.16),94,(1.1),"CCCCN(Cc1ccccc1)S(=O)(=O)c1ccc(N2CCC(NC[C@H](O)COc3cccc4[nH]c(=O)[nH]c34)CC2)cc1 [Example 2, N-Benzyl-N-butyl-4-{4-[(2S)-2-hydroxy-3-(2-oxo-2,3-dihydro-1H-benzoimidazol-4-yloxy)-propylamino]-piperidin-1-yl}-benzenesulfonamide]"
270,(0.29),240,(0.41),23,(0.98),"CS(=O)(=O)Nc1cc([C@@H](O)CNC2CCN(c3ccc(S(=O)(=O)NCC4CC4)cc3)CC2)ccc1O [Example 26, N-Cyclopropylmethyl-4-{4-[(2R)-2-hydroxy-2-(4-hydroxy-3-methanesulfonylamino-phenyl)-ethylamino]-piperidin-1-yl}-benzenesulfonamide]"
,(0),,(0.17),21,(0.78),"O=c1[nH]c2cccc(OCC(O)CNC3CCN(c4ccc(S(=O)(=O)NCc5ccccc5)cc4)CC3)c2[nH]1 (stereo not shown) [Example 4, N-Benzyl-4-{4-[2-hydroxy-3-(2-oxo-2,3-dihydro-1H-benzoimidazol-4-yloxy)-propylamino]-piperidin-1-yl}-benzenesulfonamide]"
,(0),,(0.09),17,(0.92),"COc1ccc(N(Cc2ccccc2)S(=O)(=O)c2ccc(N3CCC(NCC(O)COc4cccc5[nH]c(=O)[nH]c45)CC3)cc2)cc1OC (stereo not shown) [Example 1, N-Benzyl-N-(3,4-dimethoxy-phenyl)-4-{4-[2-hydroxy-3-(2-oxo-2,3-dihydro-1H-benzoimidazol-4-yloxy)-propylamino]-piperidin-1-yl}-benzenesulfonamide]"
,(0.07),2200,(0.59),16,(0.98),"CS(=O)(=O)Nc1cc(C(O)CNC2CCN(c3ccc(S(=O)(=O)NCc4ccccc4)cc3)CC2)ccc1O (stereo not shown) [Example 5, N-Benzyl-4-{4-[2-hydroxy-2-(4-hydroxy-3-methanesulfonylamino-phenyl)-ethylamino]-piperidin-1-yl}-benzenesulfonamide]"
10000,(0.3),10000,(0.4),10,(1),"CCCCN(CC(=O)O)S(=O)(=O)c1ccc(N2CCC(NC[C@H](O)c3ccc(O)c(NS(C)(=O)=O)c3)CC2)cc1 [Example 20, [Butyl-(4-{4-[(2R)-2-hydroxy-2-(4-hydroxy-3-methanesulfonylamino-phenyl)-ethylamino]-piperidin-1-yl}-benzenesulfonyl)-amino]-acetic Acid]"
